The source of these data is US4368198A, “Cephalosporins” (Sumitomo Chemical Company Limited, priority 1976, dated 1983).

SMILES strings stand for the structures. Values after ≈ are worked out from the molar mass of the structure shown. Like-named read-outs stand apart in the source and are kept apart here.

Holding throughout (assay type): cell-based
The test system of one assay is Escherichia coli NIHJ. As to the kind of experiment: antimicrobial activities in in vitro testing (MIC), Escherichia coli NIHJ.
For assay [1], the system named is Pseudomonas aeruginosa 104. As to the kind of experiment: antimicrobial activities in in vitro testing (MIC), Pseudomonas aeruginosa 104. The text has this:
(§1) The results of the antimicrobial activities of these compounds in in vitro testing in accordance with the recognized method are set forth in the Table below.

The test system of assay [2] is Staphylococcus aureus FS 289. Briefly: antimicrobial activities in in vitro testing (MIC), Staphylococcus aureus FS 289. To be noted: FS289, read-out: Minimum Inhibitory Concentration.
Text: as §1

Assay [3] concerns Klebsiella pneumoniae 602. As to the kind of experiment: antimicrobial activities in in vitro testing (MIC), Klebsiella pneumoniae 602.
In another assay the test system is Proteus vulgaris HX 19. Briefly: antimicrobial activities in in vitro testing (MIC), Proteus vulgaris HX 19. To be noted: HX19, read-out: Minimum Inhibitory Concentration.
Text: as §1

The subject of assay [4] is Staphylococcus aureus 209P. As to the kind of experiment: antimicrobial activities in in vitro testing (MIC), Staphylococcus aureus 209P.
Text: as §1

Setting [5] is: in vitro, read-out: Minimum Inhibitory Concentration.
Where [6] appears, read: Staphylococcus aureus 209P, in vitro, read-out: Minimum Inhibitory Concentration.
Setting [7] is: read-out: antimicrobial activities.
Setting [8] is: Staphylococcus aureus 209 P, read-out: antimicrobial activities.

For the molecule `NC(=O)OCC1=C(C(=O)O)N2C(=O)C(NC(=O)[C@H](NC(=O)c3cnc4cccnc4c3O)c3ccc(O)cc3)[C@H]2SC1` (stereo partly drawn) [Example 7, 7-[D-α-(4-Hydroxy-1,5-naphthyridine-3-carboxamido)-α-(p-hydroxyphenyl)acetamido]-3-carbamoyloxymethyl-3-cephem-4-carboxylic acid], the MIC in the assay on Escherichia coli NIHJ (setting [5]) stood at 3.13 µg/mL (≈ 5.26 µM); in assay [1] (setting [5]), 6.25 µg/mL (≈ 10.5 µM); in assay [2], 6.25 µg/mL (≈ 10.5 µM); in assay [3] (setting [5]) it was 1.56 µg/mL (≈ 2.62 µM); in the assay with Proteus vulgaris HX 19 it was 0.78 µg/mL (≈ 1.31 µM); in assay [4] (setting [6]) it was 0.78 µg/mL (≈ 1.31 µM).
For `NC(=O)OCC1=C(C(=O)O)N2C(=O)C(NC(=O)[C@H](NC(=O)c3cnccc3O)c3cccc(N)c3)[C@H]2SC1` (stereo partly drawn) [Example 5, 7-[D-α-(4-Hydroxypyridine-3-carboxamido)-α-(m-aminophenyl)acetamido]-3-carbamoyloxymethyl-3-cephem-4-carboxylic acid], the MIC in the assay on Escherichia coli NIHJ (setting [5]) came out at 6.25 µg/mL (≈ 11.5 µM); in assay [1] (setting [5]), 6.25 µg/mL (≈ 11.5 µM); in assay [2] it was 3.13 µg/mL (≈ 5.77 µM); in assay [3] (setting [5]), 12.5 µg/mL (≈ 23 µM); with Proteus vulgaris HX 19 it was 0.2 µg/mL (≈ 0.369 µM); in assay [4] (setting [6]), 0.39 µg/mL (≈ 0.719 µM).
Consider `CSc1ncc2c(O)c(C(=O)N[C@@H](C(=O)NC3C(=O)N4C(C(=O)O)=C(COC(N)=O)CS[C@H]34)c3ccc(O)cc3)cnc2n1` (stereo partly drawn) [Example 10, 7-[D-α-(2-Methylthio-5,8-dihydro-5-oxopyrido[2,3-d]-pyrimidine-6-carboxamido)-α-(p-hydroxyphenyl)acetamido]-3-carbamoyloxymethyl-3-cephem-4-carboxylic acid], for which the MIC with Escherichia coli NIHJ (setting [5]) was 6.25 µg/mL (≈ 9.74 µM); in assay [1] (setting [5]), 6.25 µg/mL (≈ 9.74 µM); in assay [2], 3.13 µg/mL (≈ 4.88 µM); in assay [3] (setting [5]), 6.25 µg/mL (≈ 9.74 µM); with Proteus vulgaris HX 19, 1.56 µg/mL (≈ 2.43 µM); in assay [4] (setting [6]) it was 0.78 µg/mL (≈ 1.22 µM).
In the case of `O=C(O)Cc1nnc(SCC2=C(C(=O)O)N3C(=O)C(NC(=O)[C@H](NC(=O)c4cnc5cccnc5c4O)c4ccc(O)cc4)[C@H]3SC2)s1` (stereo partly drawn) [Example 13, 7-[D-α-(4-Hydroxy-1,5-naphthyridine-3-carboxamido)-α-p-hydroxyphenylacetamido]-3-(5-carboxymethyl-1,3,4-thiadiazol-2-ylthiomethyl)-3-cephem-4-carboxylic Acid], the MIC is 1.56 µg/mL (≈ 2.2 µM) in the assay on Escherichia coli NIHJ (setting [7]), 3.13 µg/mL (≈ 4.41 µM) in assay [1] (setting [7]), 1.56 µg/mL (≈ 2.2 µM) in assay [3] (setting [7]) and 0.78 µg/mL (≈ 1.1 µM) in assay [4] (setting [8]).
Consider `NC(=O)OCC1=C(C(=O)O)N2C(=O)C(NC(=O)[C@H](NC(=O)c3cnc4cncnc4c3O)c3ccc(O)cc3)C2SC1` (stereo partly drawn) [Example 11, 7-[D-α-(5,8-Dihydro-5H-8-oxopyrido[3,2-d]pyrimidine-7-carboxamido)-α-(p-hydroxyphenyl)acetamido]-3-carbamoyloxymethyl-3-cephem-4-carboxylic acid], for which the MIC was 6.25 µg/mL (≈ 10.5 µM) with Escherichia coli NIHJ (setting [5]); 12.5 µg/mL (≈ 21 µM) in assay [1] (setting [5]); 6.25 µg/mL (≈ 10.5 µM) in assay [2]; 6.25 µg/mL (≈ 10.5 µM) in assay [3] (setting [5]); 1.56 µg/mL (≈ 2.62 µM) in the assay on Proteus vulgaris HX 19; 1.56 µg/mL (≈ 2.62 µM) in assay [4] (setting [6]).
For `NC(=O)OCC1=C(C(=O)O)N2C(=O)C(NC(=O)[C@H](NC(=O)c3cnc4cccnc4c3O)c3cccc(N)c3)C2SC1` (some centres unmarked) [Example 9], the MIC turned out to be 1.56 µg/mL (≈ 2.63 µM) in the assay with Escherichia coli NIHJ (setting [5]); 6.25 µg/mL (≈ 10.5 µM) in assay [1] (setting [5]); 3.13 µg/mL (≈ 5.27 µM) in assay [2]; 1.56 µg/mL (≈ 2.63 µM) in assay [3] (setting [5]); 0.78 µg/mL (≈ 1.31 µM) in the assay on Proteus vulgaris HX 19; 0.78 µg/mL (≈ 1.31 µM) in assay [4] (setting [6]).
With `NC(=O)OCC1=C(C(=O)O)N2C(=O)C(NC(=O)[C@H](NC(=O)c3cnccc3O)c3ccc(O)cc3)[C@H]2SC1` (stereo partly drawn) [Example 4, 7-[D-α-(4-Hydroxypyridine-3-carboxamido)-α-p-hydroxyphenylacetamido]-3-carbamoyloxymethyl-3-cephem-4-carboxylic Acid], the MIC came out at 12.5 µg/mL (≈ 23 µM) in the assay on Escherichia coli NIHJ (setting [5]); 6.25 µg/mL (≈ 11.5 µM) in assay [1] (setting [5]); 3.13 µg/mL (≈ 5.76 µM) in assay [2]; 12.5 µg/mL (≈ 23 µM) in assay [3] (setting [5]); 0.2 µg/mL (≈ 0.368 µM) with Proteus vulgaris HX 19; 0.39 µg/mL (≈ 0.718 µM) in assay [4] (setting [6]).
Turning to `NC(=O)OCC1=C(C(=O)O)N2C(=O)C(NC(=O)[C@H](NC(=O)c3cnccc3O)c3ccccc3)[C@H]2SC1` (stereo partly drawn) [Example 6, 7-[D-α-(4-Hydroxypyridine-3-carboxamido)-α-phenylacetamido]-3-carbamoyloxymethyl-3-cephem-4-carboxylic acid], the MIC stood at 12.5 µg/mL (≈ 23.7 µM) in the assay on Escherichia coli NIHJ (setting [5]); 12.5 µg/mL (≈ 23.7 µM) in assay [1] (setting [5]); 3.13 µg/mL (≈ 5.93 µM) in assay [2]; 12.5 µg/mL (≈ 23.7 µM) in assay [3] (setting [5]); 0.2 µg/mL (≈ 0.379 µM) in the assay on Proteus vulgaris HX 19; 0.39 µg/mL (≈ 0.739 µM) in assay [4] (setting [6]).
As for `NC(=O)OCC1=C(C(=O)O)N2C(=O)C(NC(=O)[C@H](NC(=O)c3cnc4cccnc4c3O)c3ccc(O)c(Cl)c3)C2SC1` (some centres unmarked) [Example 12], the MIC with Escherichia coli NIHJ (setting [5]) came to 3.13 µg/mL (≈ 4.98 µM); in assay [1] (setting [5]), 6.25 µg/mL (≈ 9.94 µM); in assay [2], 6.25 µg/mL (≈ 9.94 µM); in assay [3] (setting [5]), 1.56 µg/mL (≈ 2.48 µM); with Proteus vulgaris HX 19 it was 0.78 µg/mL (≈ 1.24 µM); in assay [4] (setting [6]), 1.56 µg/mL (≈ 2.48 µM).
Take `NC(=O)OCC1=C(C(=O)O)N2C(=O)C(NC(=O)[C@H](NC(=O)c3cnc4cccnc4c3O)c3ccccc3)[C@H]2SC1` (stereo partly drawn) [Example 8, 7-[D-α-(4-Hydroxy-1,5-naphthyridine-3-carboxamido)-α-phenylacetamido]-3-carbamoyloxymethyl-3-cephem-4-carboxylic acid]: the MIC is 3.13 µg/mL (≈ 5.41 µM) in the assay with Escherichia coli NIHJ (setting [5]); 6.25 µg/mL (≈ 10.8 µM) in assay [1] (setting [5]); 6.25 µg/mL (≈ 10.8 µM) in assay [2]; 1.56 µg/mL (≈ 2.7 µM) in assay [3] (setting [5]); 0.78 µg/mL (≈ 1.35 µM) with Proteus vulgaris HX 19; 0.78 µg/mL (≈ 1.35 µM) in assay [4] (setting [6]).
As to `O=C(O)Cn1nnnc1SCC1=C(C(=O)O)N2C(=O)C(NC(=O)[C@H](NC(=O)c3cnc4cccnc4c3O)c3ccc(O)cc3)[C@H]2SC1` (stereo partly drawn) [Example 14, 7-[D-α-(4-Hydroxy-1,5-naphthyridine-3-carboxamido)-α-p-hydroxyphenylacetamido]-3-(1-carboxymethyl-1,2,3,4-tetrazol-5-ylthiomethyl)-3-cephem-4-carboxylic Acid], the MIC was determined as 1.56 µg/mL (≈ 2.25 µM) with Escherichia coli NIHJ (setting [7]), 3.13 µg/mL (≈ 4.51 µM) in assay [1] (setting [7]), 1.56 µg/mL (≈ 2.25 µM) in assay [3] (setting [7]) and 0.78 µg/mL (≈ 1.12 µM) in assay [4] (setting [8]).
